Results: patent US6737383B1, “Herbicidal oxadiazolidines” (priority 1999, dated 2004)

Experiments:
pigweed = assay: Test B pre/postemergence pigweed; assay type: in vivo, Amaranthus retroflexus
Outline: (§1)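 Response is a visual 0-to-10 score relative to untreated plants, where 0 means no effect and 10 means complete control, taken twelve to sixteen days after application. Treatments went onto soil at planting and onto foliage of 1- to 4-leaf plants, using a surfactant-containing non-phytotoxic solvent.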

corn = assay: Test B pre/postemergence corn; assay type: in vivo, Zea mays
Outline: as §1

wild oat = assay: Test B pre/postemergence wild oat; assay type: in vivo, Avena fatua
Outline: as §1

morningglory = assay: Test B pre/postemergence morningglory; assay type: in vivo, Ipomoea hederacea
Outline: as §1

velvetleaf = assay: Test B pre/postemergence velvetleaf; assay type: in vivo, Abutilon theophrasti
Outline: as §1

rape = assay: Test B pre/postemergence rape; assay type: in vivo, Brassica napus
Outline: as §1

bamyardgrass = assay: Test B flood test barnyardgrass; assay type: in vivo, Echinochloa crus-galli
Outline: (§2)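 Plants were grown to the 2-leaf stage before treatment with test chemical, then held in a greenhouse for twelve to sixteen days. Injury was visually rated against untreated controls on a 0–10 scale, where 0 is no effect and 10 is complete control.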

blackgrass = assay: Test B pre/postemergence blackgrass; assay type: in vivo, Alopecurus myosuroides
Outline: as §1

cocklebur = assay: Test B pre/postemergence cocklebur; assay type: in vivo, Xanthium strumarium
Outline: as §1

rice = assay: Test B flood test rice; assay type: in vivo, Oryza sativa
Outline: as §2

surinam grass = assay: Test B pre/postemergence surinam grass; assay type: in vivo, Brachiaria decumbens
Outline: as §1

soybean = assay: Test B pre/postemergence soybean; assay type: in vivo, Glycine max
Outline: as §1

bedstraw = assay: Test B pre/postemergence bedstraw; assay type: in vivo, Galium aparine
Outline: as §1

purple nutsedge = assay: Test B pre/postemergence purple nutsedge; assay type: in vivo, Cyperus rotundus
Outline: as §1

sugar beet = assay: Test B pre/postemergence sugar beet; assay type: in vivo, Beta vulgaris
Outline: as §1

smallflower flatsedge = assay: Test B flood test smallflower flatsedge; assay type: in vivo, Cyperus difformis
Outline: as §2

[1] = Postemergence, Rate 62 g/ha, scale 0 to 10, 0 is no effect, 10 is complete control
[2] = Postemergence, Rate 250 g/ha, scale 0 to 10, 0 no effect, 10 complete control
[3] = Preemergence, Rate 62 g/ha, scale 0 to 10, 0 is no effect, 10 is complete control
[4] = Preemergence, Rate 125 g/ha, scale 0 to 10 (0 no effect, 10 complete control)
[5] = Preemergence, Rate 250 g/ha, scale of 0 to 10 where 0 is no effect and 10 is complete control
[6] = Preemergence, Rate 500 g/ha, scale 0 (no effect) to 10 (complete control)
[7] = Rate 125 g/ha, Postemergence, scale 0 to 10, 0 no effect, 10 complete control
[8] = Rate 500 g/ha, Postemergence, 0 to 10 scale (0 no effect, 10 complete control)
[9] = Rate 125 g/ha, Postemergence section (flood test species), scale 0 to 10, 0 no effect, 10 complete control
[10] = Rate 500 g/ha, Postemergence section of Table B, 0 to 10 scale (0 no effect, 10 complete control)
[11] = flood test, listed under Postemergence, Rate 250 g/ha, scale 0 to 10, 0 no effect, 10 complete control

## CCc1ccccc1-n1c(=O)on(C(=O)N(c2ccc(F)cc2F)C(C)C)c1=O [Compound 45]
pigweed; [1]
  Redroot pigweed plant response rating: 0
pigweed; [2]
  Redroot pigweed plant response rating: 0
pigweed; [3]
  Plant response rating, Redroot pigweed: 0
pigweed; [4]
  Plant response rating, Redroot pigweed: 0
pigweed; [5]
  Plant response rating, Redroot pigweed: 8
pigweed; [6]
  Redroot pigweed plant response rating: 8
pigweed; [7]
  Redroot pigweed plant response rating: 0
pigweed; [8]
  Redroot pigweed plant response rating: 0
corn; [1]
  Corn plant response rating: 0
corn; [2]
  Corn plant response rating: 0
corn; [3]
  Plant response rating, Corn: 0
corn; [4]
  Plant response rating, Corn: 0
corn; [5]
  Plant response rating, Corn: 0
corn; [6]
  Corn plant response rating: 1
corn; [7]
  Corn plant response rating: 0
corn; [8]
  Corn plant response rating: 0
Wild oat; [1]
  Wild oats plant response rating: 0
Wild oat; [2]
  Wild oats plant response rating: 0
Wild oat; [4]
  Plant response rating, Wild oats: 0
Wild oat; [5]
  Plant response rating, Wild oats: 0
Wild oat; [6]
  Wild oats plant response rating: 0
Wild oat; [7]
  Wild oats plant response rating: 0
morningglory; [1]
  Morningglory plant response rating: 0
morningglory; [2]
  Morningglory plant response rating: 0
morningglory; [3]
  Plant response rating, Morningglory: 0
morningglory; [4]
  Plant response rating, Morningglory: 0
morningglory; [5]
  Plant response rating, Morningglory: 0
morningglory; [6]
  Morningglory plant response rating: 0
morningglory; [7]
  Morningglory plant response rating: 0
morningglory; [8]
  Morningglory plant response rating: 3
velvetleaf; [1]
  Velvetleaf plant response rating: 0
velvetleaf; [2]
  Velvetleaf plant response rating: 0
velvetleaf; [3]
  Plant response rating, Velvetleaf: 0
velvetleaf; [4]
  Plant response rating, Velvetleaf: 0
velvetleaf; [5]
  Plant response rating, Velvetleaf: 0
velvetleaf; [6]
  Velvetleaf plant response rating: 3
velvetleaf; [7]
  Velvetleaf plant response rating: 0
rape; [1]
  Rape plant response rating: 0
rape; [2]
  Rape plant response rating: 0
rape; [3]
  Plant response rating, Rape: 0
rape; [4]
  Plant response rating, Rape: 0
rape; [5]
  Plant response rating, Rape: 0
rape; [6]
  Rape plant response rating: 0
rape; [7]
  Rape plant response rating: 0
rape; [8]
  Rape plant response rating: 0
bamyardgrass; [1]
  Barnyardgrass plant response rating: 0
bamyardgrass; [9]
  Barnyardgrass plant response rating: 0
bamyardgrass; [10]
  Barnyardgrass plant response rating: 0
bamyardgrass; [11]
  Barnyardgrass plant response rating: 0
blackgrass; [1]
  Blackgrass plant response rating: 0
blackgrass; [2]
  Blackgrass plant response rating: 4
blackgrass; [3]
  Plant response rating, Blackgrass: 0
blackgrass; [4]
  Plant response rating, Blackgrass: 0
blackgrass; [5]
  Plant response rating, Blackgrass: 0
blackgrass; [6]
  Blackgrass plant response rating: 0
blackgrass; [7]
  Blackgrass plant response rating: 0
blackgrass; [8]
  Blackgrass plant response rating: 4
cocklebur; [1]
  Cocklebur plant response rating: 0
cocklebur; [2]
  Cocklebur plant response rating: 2
cocklebur; [3]
  Plant response rating, Cocklebur: 0
cocklebur; [4]
  Plant response rating, Cocklebur: 0
cocklebur; [5]
  Plant response rating, Cocklebur: 0
cocklebur; [6]
  Cocklebur plant response rating: 0
cocklebur; [7]
  Cocklebur plant response rating: 1
cocklebur; [8]
  Cocklebur plant response rating: 5
rice; [1]
  Rice plant response rating: 0
rice; [9]
  Rice plant response rating: 0
rice; [10]
  Rice plant response rating: 0
rice; [11]
  Rice plant response rating: 0
Surinam grass; [1]
  B. signalgrass plant response rating: 0
Surinam grass; [2]
  B. signalgrass plant response rating: 0
Surinam grass; [3]
  Plant response rating, B. signalgrass: 0
Surinam grass; [4]
  Plant response rating, B. signalgrass: 2
Surinam grass; [5]
  Plant response rating, B. signalgrass: 4
Surinam grass; [6]
  B. signalgrass plant response rating: 9
Surinam grass; [7]
  B. signalgrass plant response rating: 0
Surinam grass; [8]
  B. signalgrass plant response rating: 2
soybean; [1]
  Soybean plant response rating: 1
soybean; [2]
  Soybean plant response rating: 1
soybean; [3]
  Plant response rating, Soybean: 0
soybean; [4]
  Plant response rating, Soybean: 0
soybean; [5]
  Plant response rating, Soybean: 0
soybean; [6]
  Soybean plant response rating: 3
soybean; [7]
  Soybean plant response rating: 1
bedstraw; [1]
  Bedstraw plant response rating: 3
bedstraw; [3]
  Plant response rating, Bedstraw: 0
bedstraw; [4]
  Plant response rating, Bedstraw: 0
bedstraw; [5]
  Plant response rating, Bedstraw: 0
bedstraw; [6]
  Bedstraw plant response rating: 0
bedstraw; [7]
  Bedstraw plant response rating: 5
Purple nutsedge; [1]
  Nutsedge plant response rating: 0
Purple nutsedge; [2]
  Nutsedge plant response rating: 0
Purple nutsedge; [3]
  Plant response rating, Nutsedge: 0
Purple nutsedge; [4]
  Plant response rating, Nutsedge: 0
Purple nutsedge; [5]
  Plant response rating, Nutsedge: 0
Purple nutsedge; [6]
  Nutsedge plant response rating: 0
Purple nutsedge; [7]
  Nutsedge plant response rating: 0
Purple nutsedge; [8]
  Nutsedge plant response rating: 0
Sugar beet; [1]
  Sugarbeets plant response rating: 0
Sugar beet; [2]
  Sugarbeets plant response rating: 1
Sugar beet; [3]
  Plant response rating, Sugarbeets: 0
Sugar beet; [4]
  Plant response rating, Sugarbeets: 0
Sugar beet; [5]
  Plant response rating, Sugarbeets: 7
Sugar beet; [6]
  Sugarbeets plant response rating: 8
Sugar beet; [7]
  Sugarbeets plant response rating: 0
Smallflower flatsedge; [1]
  S. Flatsedge plant response rating: 0
Smallflower flatsedge; [9]
  S. Flatsedge plant response rating: 0
Smallflower flatsedge; [11]
  S. Flatsedge plant response rating: 0
